The values that follow come from patent US20260137820A1, “TRIFUNCTIONAL COMPOUND AND USE THEREOF” (PEKING UNIVERSITY, priority 2022, published 2026).

In one data set the test system is AR42J cells. The data set is described as follows: Cell affinity determination, similar method. It counts as cell-based. Here is the method:
(§1) HT-1080-FAP cells were inoculated into a 24-well plate 24 hours in advance, with the density being about 30% (calculated and estimated), 10^5 cells (countable) per well. 0.5 mL of a complete medium was added. The medium was changed to a serum-free medium. 12 groups of FAPI-CB-01 solutions with a concentration gradient of 0-5000 nM were set up, with internal replicates n=4 for each group. […] 0.75 nM ^68Ga-FAPI-04 was added to each well, followed by incubation at 37° C. for 1 hour. After washing twice with cold PBS and lysis, the radioactivity count was measured.
(§2) Using a similar method, the corresponding targeting PSMA-CB-05, FOLR1-CB-06, SSTR2-CB-02, Nectin4-CB-02, and CXCR4-CB-03 were determined for affinity in LNCaP cells, KB cells, AR42J cells, SW-780 cells, or Daudi cells, respectively. All of these compounds maintained good affinity.

For a further data set, the system named is LNCaP cells. The data set is described as follows: Cell affinity determination, similar method. It counts as cell-based. The procedure: as §1, §2
The subject of data set [1] is HT-1080-FAP tumor. Briefly: ^225Ac radionuclide therapy experiment in tumor mouse model. It counts as in vivo. The conditions noted are these: ^225Ac-labeled, treatment on day 0 and day 4, same or higher dose; vs normal saline or FAPI-04 control group. Here is the method: (§3) When the average tumor size reached about 100 mm^3, HT-1080-FAP tumor mice in the same batch were randomly divided into five groups, with n=7 or 8 in each group. Two rounds of treatment were then carried out on day 0 and day 4. […] The tumor size and weight of the mice were monitored every 2 or 3 days.

For the next data set, the system named is FAP, DPP-4 and PREP. Briefly: Binding selectivity to homologous proteins (competitive inhibition of enzyme substrate, IC50). In kind it is biochemical. The following applies: from IC50 values, pNA release. Here is the method: Taking FAP target as an example, homologous proteins thereof include, but are not limited to, DPP-4 and PREP. The structural similarity thereof may lead to a decreased binding selectivity of the modified precursor molecules for the homologous proteins, resulting in an increased uptake in non-target organs.
The binding selectivity for homologous proteins was determined by a competitive inhibition experiment on the substrate of the enzymes, and the binding/inhibition selectivity thereof is indirectly evaluated by the median inhibitory concentration (IC50) values obtained.
By reference to the method described in Extended Structure-Activity Relationship and Pharmacokinetic Investigation of (4-Quinolinoyl)glycyl-2-cyanopyrrolidine Inhibitors of Fibroblast Activation Protein (FAP). Journal of Medicinal Chemistry 57, 3053-3074 (2014), published by Jansen et al., the initial rate of p-nitroaniline (pNA) released from the substrate (absorption at 405 nm) was measured by using a microplate reader (PerkinElmer, Victor™ X5) at 37° C. in a final volume of 200 μL to determine the kinetic properties of the enzyme activity. […]
The determination method for IC50 on FAP is as follows: the substrate Z-Gly-Pro-p-nitroanilide (50 μM, Cat #G-58468, HEOWNS) was used to measure FAP activity at pH 7.4. […] The mixture was then incubated at 37° C. for 6 hours, and the release of pNA was then measured. […]

The subject of data set [2] is HT-1080-FAP tumor. Briefly: PET/CT imaging in HT-1080-FAP tumor-bearing mouse model. It counts as in vivo. The following applies: ^68Ga label, 18.5 MBq via tail vein, p<0.005. Here is the method:
Mouse model: Nu/Nu mice (SPF grade) were purchased from Beijing Charles River Laboratories (China) and injected subcutaneously with HT-1080-FAP cells to construct a tumor model with high FAP expression.
All PET/CT scans were carried out on Mediso nanoScan® PET 122S small animal PET/CT.
After a certain number of HT-1080-FAP tumor mice were taken and injected via the tail vein with 7.4-18.5 MBq of ^68Ga/^86Y-FAPI-04 (control) and ^68Ga/^86Y-FAPI-CB series molecules at specified time points (Note: the injection of the control and investigation molecules was separated apart by at least five half-lives of the nuclide to ensure that the radioactivity of the previous probe had almost completely decayed and was essentially completely metabolized), imaging was carried out at specified time points. In some examples, the mice were anesthetized and then sacrificed by neck breaking at a certain time point. Organs were dissected and taken for radioactivity measurement.
A ^68Ge-^68Ga generator was eluted with 5 mL of 0.6 M high-purity hydrochloric acid to obtain a Ga-68 hydrochloric acid solution. 1 mL of the Ga-68 solution after elution was taken, and 100 μL of 3 M sodium hydroxide and 130 μL of 3M sodium acetate were added to adjust the acidity to a final pH of 4.0. 12 μg of FAPI-CB-00 compound was added, and the reaction mixture was heated to 70° C. and maintained for 20 min. […]

In data set [3] the test system is HT-1080-FAP tumor. The data set is described as follows: ^177Lu radionuclide therapy experiment in tumor mouse model. In kind it is in vivo. The following applies: ^177Lu-labeled, treatment on day 0 and day 4, same or higher dose; vs normal saline or FAPI-04 control group. The procedure:
as §3

The next data set concerns the target T1, Human FAP Protein (Homo sapiens, UniProt Q12884).
T1 construct: His; purchased Novoprotein (China)
T1 sequence (Q12884 1-760): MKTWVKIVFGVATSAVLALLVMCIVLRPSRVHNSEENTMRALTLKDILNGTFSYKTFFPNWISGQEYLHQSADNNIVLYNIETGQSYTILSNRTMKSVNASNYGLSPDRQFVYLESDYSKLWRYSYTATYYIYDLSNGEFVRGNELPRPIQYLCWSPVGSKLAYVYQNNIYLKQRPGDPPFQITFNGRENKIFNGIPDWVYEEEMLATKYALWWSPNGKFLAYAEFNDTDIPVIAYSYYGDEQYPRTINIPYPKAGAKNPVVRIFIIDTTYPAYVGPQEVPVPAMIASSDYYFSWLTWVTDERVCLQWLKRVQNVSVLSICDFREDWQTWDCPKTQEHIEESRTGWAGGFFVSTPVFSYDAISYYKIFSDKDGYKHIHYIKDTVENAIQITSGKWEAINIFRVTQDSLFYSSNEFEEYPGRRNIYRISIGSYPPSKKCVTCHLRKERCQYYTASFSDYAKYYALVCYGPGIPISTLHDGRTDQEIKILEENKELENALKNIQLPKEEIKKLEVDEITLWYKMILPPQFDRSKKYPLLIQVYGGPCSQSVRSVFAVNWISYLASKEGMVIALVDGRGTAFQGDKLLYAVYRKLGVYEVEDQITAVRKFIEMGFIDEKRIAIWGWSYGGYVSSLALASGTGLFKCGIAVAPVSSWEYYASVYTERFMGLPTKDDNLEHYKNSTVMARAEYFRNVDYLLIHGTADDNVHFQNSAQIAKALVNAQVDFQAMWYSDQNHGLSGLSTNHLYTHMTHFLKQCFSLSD
Briefly: Surface plasmon resonance, multi-cycle mode. It counts as binding. The following applies: SPR multi-cycle, 1:1 binding model. Here is the method: According to US Pharmacopeia USP43 IMMUNOLOGICAL TEST METHODS-SURFACE PLASMON RESONANCE<1105> and Chinese Pharmacopoeia 2020, Volume IV, Surface plasmon resonance method, Label-free Immunochemistry (IV), 3429 Immunochemistry, General Rule, a surface plasmon resonance experiment was carried out.
A surface plasma chromatograph from Cytiva was used for measurement. Before protein injection, 400 mM condensing agent 1-ethyl-(3-dimethylaminopropyl)carbodiimide hydrochloride and 100 mM N-hydroxysuccinimide were mixed, and a CM5 sensor chip was activated with this mixture for 420 seconds at a flow rate of 10 μL/min. 50 μg/mL protein was then injected into an Fc2 sample channel at a flow rate of 10 μL/min to achieve a protein immobilization level of about 8000-15000 RU. In the control group, no protein was injected. Subsequently, the unreacted chip was blocked with 1M ethanolamine hydrochloride-NaOH at a flow rate of 10 μL/min for 420 seconds.
Different gradient solutions were injected into channels Fc1-Fc2 at a flow rate of 30 μL/min, followed by a 60-second binding phase and a 90-second dissociation phase, and data were collected.
In general terms: In SPR one partner is held on a chip, and binding of the other changes the refractive index at the surface.

For `C[C@@H](O)[C@H](NC(=O)[C@@H]1CSSC[C@H](NC(=O)[C@@H](Cc2ccccc2)NC(=O)CN2CCN(CC(=O)O)CCN(CC(=O)O)CCN(CC(=O)O)CC2)C(=O)N[C@@H](Cc2ccc(OS(=O)(=O)F)cc2)C(=O)N[C@H](Cc2c[nH]c3ccccc23)C(=O)N[C@@H](CCCCN)C(=O)N[C@@H]([C@@H](C)O)C(=O)N1)C(=O)O` [SSTR2-CB-02], the affinity result with AR42J cells is listed as “good affinity”.
Turning to `O=C(O)CC[C@H](NC(=O)N[C@@H](CCCCNC(=O)[C@H](Cc1ccc2ccccc2c1)NC(=O)[C@H]1CC[C@H](CNC(=O)[C@H](CCCCNC(=O)CCc2cccc(S(=O)(=O)F)c2)NC(=O)CN2CCN(CC(=O)O)CCN(CC(=O)O)CCN(CC(=O)O)CC2)CC1)C(=O)O)C(=O)O` [PSMA-CB-05], the affinity result with LNCaP cells was “good affinity”.
As for `N#C[C@@H]1CC(F)(F)CN1C(=O)CNC(=O)c1ccnc2ccc(OCCCN3CCN(C(=O)[C@H](CCCCNC(=O)c4cccc(OS(=O)(=O)F)c4)NC(=O)CN4CCN(CC(=O)O)CCN(CC(=O)O)CCN(CC(=O)O)CC4)CC3)cc12` [FAPI-CB-02], the tumor inhibition effect result with HT-1080-FAP tumor [1] and in the data set with HT-1080-FAP tumor [3] was “significantly better tumor inhibition effect” each time. Further, the “selectivity to FAP protein over homologous proteins DPP-4 and PREP” value in the data set on FAP, DPP-4 and PREP was “high selectivity”. Moreover, the “improvement of maximum standard tumor uptake value (SUVmax) compared with FAPI-04” value with HT-1080-FAP tumor [2] is about 4 times.
In the case of `N#C[C@@H]1CC(F)(F)CN1C(=O)CNC(=O)c1ccnc2ccc(OCCCN3CCN(C(=O)CN4CCN(CC(=O)O)CCN(CC(=O)O)CCN(CC(=O)O)CC4)CC3)cc12` [FAPI-04, reference compound], at Human FAP Protein, the “Rmax (maximum theoretical analyte binding capacity)” value amounted to 21.7 RU, the ka was found to be 845000 M⁻¹ s⁻¹ and the kd amounted to 0.000311 s⁻¹.
